One experiment deals with T1, HDAC6 enzyme (Homo sapiens, UniProt Q9UBN7).
T1 construct: HDAC6 enzyme prepared by transducing full length HDAC6 gene into Sf-9 insect cells; GST; purchased SignalChem; host or cells: Sf-9 insect cells
T1 sequence (Q9UBN7 1-1215): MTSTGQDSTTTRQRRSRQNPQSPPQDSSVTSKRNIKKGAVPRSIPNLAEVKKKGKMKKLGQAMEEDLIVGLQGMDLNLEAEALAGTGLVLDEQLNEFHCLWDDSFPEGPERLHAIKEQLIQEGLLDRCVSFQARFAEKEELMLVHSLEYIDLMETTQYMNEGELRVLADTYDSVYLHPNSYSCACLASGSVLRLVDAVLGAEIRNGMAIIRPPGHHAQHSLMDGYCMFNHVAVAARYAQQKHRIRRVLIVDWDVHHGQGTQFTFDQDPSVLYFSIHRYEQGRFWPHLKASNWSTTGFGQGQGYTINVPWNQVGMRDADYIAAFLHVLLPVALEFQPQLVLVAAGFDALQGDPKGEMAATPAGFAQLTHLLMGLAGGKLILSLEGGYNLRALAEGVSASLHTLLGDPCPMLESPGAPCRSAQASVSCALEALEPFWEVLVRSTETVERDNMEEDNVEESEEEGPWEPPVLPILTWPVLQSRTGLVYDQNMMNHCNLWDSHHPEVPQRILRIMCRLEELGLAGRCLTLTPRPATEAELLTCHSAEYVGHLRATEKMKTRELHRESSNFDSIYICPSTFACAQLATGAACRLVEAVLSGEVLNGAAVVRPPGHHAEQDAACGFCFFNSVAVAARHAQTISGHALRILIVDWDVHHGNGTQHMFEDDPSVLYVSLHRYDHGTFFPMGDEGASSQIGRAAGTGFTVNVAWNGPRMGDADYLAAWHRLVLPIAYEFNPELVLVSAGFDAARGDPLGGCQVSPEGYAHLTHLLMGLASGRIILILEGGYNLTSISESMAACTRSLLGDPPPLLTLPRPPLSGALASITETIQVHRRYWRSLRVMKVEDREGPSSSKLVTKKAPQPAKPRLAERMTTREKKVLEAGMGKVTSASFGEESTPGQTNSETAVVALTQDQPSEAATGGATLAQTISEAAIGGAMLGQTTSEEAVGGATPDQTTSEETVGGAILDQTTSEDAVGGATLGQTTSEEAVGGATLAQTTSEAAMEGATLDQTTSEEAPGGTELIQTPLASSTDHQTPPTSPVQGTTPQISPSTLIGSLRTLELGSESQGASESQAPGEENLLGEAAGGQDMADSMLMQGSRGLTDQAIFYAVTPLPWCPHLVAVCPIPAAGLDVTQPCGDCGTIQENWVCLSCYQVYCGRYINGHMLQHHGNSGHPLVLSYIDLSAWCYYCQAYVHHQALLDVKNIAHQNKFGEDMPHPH
The experiment in a line: HDAC6 enzyme inhibitory assay (HDAC-Glo I/II Assay kit). Format: biochemical. The following applies: wells without enzyme = 100% inhibition, 10 µM. The method in brief:
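Full-length GST-purified HDAC6 from Sf-9 cells preincubated with compound 60 min at room temperature in Tris-HCl pH 7.5 buffer with MgCl2, KCl, NaCl, glutathione, Tween-20. Substrate-developer reaction 20 min, luminescence read; no-enzyme wells set as 100% inhibition.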
`O=C1c2cc(-c3nnc(C(F)F)o3)ccc2CN1[C@H](c1ccccn1)[C@@H](O)c1ccc(Cl)cn1` (single isomer, unassigned) [Example 113, 2-[(1R*,2R)-2-(5-chloropyridin-2-yl)-2-hydroxy-1-(pyridin-2-yl)ethyl]-6-[5-(difluoromethyl)-1,3,4-oxadiazol-2-yl]-2,3-dihydro-1H-isoindol-1-one]: the “HDAC6 inhibitory rate (%) (10 μM)” value is listed as 100%.

As to `O=C1c2cc(-c3nnc(C(F)F)o3)ccc2CN1[C@H](c1ccc(F)cn1)[C@@H](O)c1ccccn1` (single isomer, unassigned) [Example 60], the “HDAC6 inhibitory rate (%) (10 μM)” value amounted to 99%.

Staying with this experiment, now noted: wells without enzyme = 100% inhibition, read-out: HDAC6 inhibitory rate (%) (10 μM).
On to `O=C1c2cc(-c3nnc(C(F)F)o3)ccc2CN1[C@H](c1ccc(F)cc1)[C@H](O)c1ccc(C(F)(F)F)nc1` (racemic) [Example 142, 6-[5-(difluoromethyl)-1,3,4-oxadiazol-2-yl]-2-{(1RS,2RS)-1-(4-fluorophenyl)-2-hydroxy-2-[6-(trifluoromethyl)pyridin-3-yl]ethyl}-2,3-dihydro-1H-isoindol-1-one], for which the inhibition at 10 µM came to 100%. The same measure, in the same setting: with `O=C1c2cc(-c3nnc(C(F)F)o3)ccc2CN1[C@H](c1ccccn1)[C@@H](O)c1cc(Cl)ccn1` (single isomer, unassigned) [Example 123, 2-[(1R*,2R*)-2-(4-chloropyridin-2-yl)-2-hydroxy-1-(pyridin-2-yl)ethyl]-6-[5-(difluoromethyl)-1,3,4-oxadiazol-2-yl]-2,3-dihydro-1H-isoindol-1-one] the figure was 101%; with `O=C1c2cc(-c3nnc(C(F)F)o3)ccc2CN1[C@@H](c1ccccn1)[C@H](O)c1ccccn1` [Example 2, 6-[5-(difluoromethyl)-1,3,4-oxadiazol-2-yl]-2-[(1S,2S)-2-hydroxy-1,2-di(pyridin-2-yl)ethyl]-2,3-dihydro-1H-isoindol-1-one], 100%.

In the case of `O=C1c2cc(-c3nnc(C(F)F)o3)ccc2CN1[C@H](c1ccc(F)cc1)[C@@H](O)c1cccnc1` (single isomer, unassigned) [Example 49, 6-[5-(difluoromethyl)-1,3,4-oxadiazol-2-yl]-2-[(1R*,2S*)-1-(4-fluorophenyl)-2-hydroxy-2-(pyridin-3-yl)ethyl]-2,3-dihydro-1H-isoindol-1-one], the inhibition at 10 µM amounted to 99%. Same read-out and setting: with `O=C1c2cc(-c3nnc(C(F)F)o3)ccc2CN1[C@H](C1CC1)[C@@H](O)c1ccc(F)cc1` [Example 9, 2-[(1R,2S)-1-cyclopropyl-2-(4-fluorophenyl)-2-hydroxyethyl]-6-[5-(difluoromethyl)-1,3,4-oxadiazol-2-yl]-2,3-dihydro-1H-isoindol-1-one] the figure was 100%; with `O=C1c2cc(-c3nnc(C(F)F)o3)ccc2CN1[C@H](c1ccc(F)c(F)c1)[C@@H](O)c1ccccn1` (single isomer, unassigned) [Example 50, 6-[5-(difluoromethyl)-1,3,4-oxadiazol-2-yl]-2-[(1R*,2R*)-1-(3,4-difluorophenyl)-2-hydroxy-2-(pyridin-2-yl)ethyl]-2,3-dihydro-1H-isoindol-1-one], 99%; with `O=C1c2cc(-c3nnc(C(F)F)o3)ccc2CN1[C@@H](c1ccc(F)cn1)[C@H](O)c1ccc(F)cn1` (stereo in doubt) [Example 6, 2-[(1S,2S)-1,2-bis(5-fluoropyridin-2-yl)-2-hydroxyethyl]-6-[5-(difluoromethyl)-1,3,4-oxadiazol-2-yl]-2,3-dihydro-1H-isoindol-1-one], 100%. Same read-out and setting: in the case of `O=C1c2cc(-c3nnc(C(F)F)o3)ccc2CN1[C@H](c1ccc(F)cc1)[C@@H](O)C1CCOCC1` (racemic) [Example 30, 6-[5-(difluoromethyl)-1,3,4-oxadiazol-2-yl]-2-[(1RS,2SR)-1-(4-fluorophenyl)-2-hydroxy-2-(oxan-4-yl)ethyl]-2,3-dihydro-1H-isoindol-1-one] it was 99%; in that of `O=C1c2cc(-c3nnc(C(F)F)o3)ccc2CN1[C@H](C1CCOCC1)[C@@H](O)c1cccc(F)c1` [Example 64, 6-[5-(difluoromethyl)-1,3,4-oxadiazol-2-yl]-2-[(1R,2S)-2-(3-fluorophenyl)-2-hydroxy-1-(oxan-4-yl)ethyl]-2,3-dihydro-1H-isoindol-1-one], 100%; in that of `O=C1c2cc(-c3nnc(C(F)F)o3)ccc2CN1[C@H](c1ncccn1)[C@@H](O)c1cccc(Cl)c1` (racemic) [Example 133, 2-[(1RS,2SR)-2-(3-chlorophenyl)-2-hydroxy-1-(pyrimidin-2-yl)ethyl]-6-[5-(difluoromethyl)-1,3,4-oxadiazol-2-yl]-2,3-dihydro-1H-isoindol-1-one], 100%.

In the case of `O=C1c2cc(-c3nnc(C(F)F)o3)ccc2CN1[C@H](c1ccccc1F)[C@@H](O)c1ccccc1` (racemic) [Example 27, 6-[5-(difluoromethyl)-1,3,4-oxadiazol-2-yl]-2-[(1RS,2SR)-1-(2-fluorophenyl)-2-hydroxy-2-phenylethyl]-2,3-dihydro-1H-isoindol-1-one], the inhibition at 10 µM was 101%.

Turning to `O=C1c2cc(-c3nnc(C(F)F)o3)ccc2CN1[C@H](C1CCOCC1)[C@@H](O)c1ccc(F)c(F)c1` (single isomer, unassigned) [Example 87, 6-[5-(difluoromethyl)-1,3,4-oxadiazol-2-yl]-2-[(1R*,2S*)-2-(3,4-difluorophenyl)-2-hydroxy-1-(oxan-4-yl)ethyl]-2,3-dihydro-1H-isoindol-1-one], the inhibition at 10 µM was found to be 100%. Still for that read-out and setting: in the case of `O=C1c2cc(-c3nnc(C(F)F)o3)ccc2CN1[C@@H](c1ccccc1)[C@H](O)c1ccccc1` [Example 14, 6-[5-(difluoromethyl)-1,3,4-oxadiazol-2-yl]-2-[(1S,2R)-2-hydroxy-1,2-diphenylethyl]-2,3-dihydro-1H-isoindol-1-one] it was 100%; in that of `O=C1c2cc(-c3nnc(C(F)F)o3)ccc2CN1[C@H](c1ccccc1)[C@@H](O)c1ccccc1` [Example 11, 6-[5-(difluoromethyl)-1,3,4-oxadiazol-2-yl]-2-[(1R,2S)-2-hydroxy-1,2-diphenylethyl]-2,3-dihydro-1H-isoindol-1-one], 99%; in that of `O=C1c2cc(-c3nnc(C(F)F)o3)ccc2CN1[C@H](c1ccc(C(F)(F)F)cc1)[C@@H](O)c1ccccn1` (racemic) [Example 26, 6-[5-(difluoromethyl)-1,3,4-oxadiazol-2-yl]-2-{(1RS,2RS)-2-hydroxy-2-(pyridin-2-yl)-1-[4-(trifluoromethyl)phenyl]ethyl}-2,3-dihydro-1H-isoindol-1-one], 99%. As for `O=C1c2cc(-c3nnc(C(F)F)o3)ccc2CN1[C@H](c1cccnn1)[C@@H](O)c1cccc(Cl)c1` (relative stereo) [Example 121, 2-[(1R*,2S)-2-(3-chlorophenyl)-2-hydroxy-1-(pyridazin-3-yl)ethyl]-6-[5-(difluoromethyl)-1,3,4-oxadiazol-2-yl]-2,3-dihydro-1H-isoindol-1-one], the inhibition at 10 µM was 101%.

Regarding `O=C1c2cc(-c3nnc(C(F)F)o3)ccc2CN1[C@H](c1cccc(C(F)(F)F)c1)[C@@H](O)c1ccccn1` (racemic) [Example 24, 6-[5-(difluoromethyl)-1,3,4-oxadiazol-2-yl]-2-{(1RS,2RS)-2-hydroxy-2-(pyridin-2-yl)-1-[3-(trifluoromethyl)phenyl]ethyl}-2,3-dihydro-1H-isoindol-1-one], the inhibition at 10 µM worked out at 99%. Still for that read-out and setting: in the case of `N#Cc1ccc([C@H]([C@@H](O)c2ccccc2)N2Cc3ccc(-c4nnc(C(F)F)o4)cc3C2=O)cc1` (racemic) [Example 41, 4-[(1RS,2SR)-1-{6-[5-(difluoromethyl)-1,3,4-oxadiazol-2-yl]-1-oxo-1,3-dihydro-2H-isoindol-2-yl}-2-hydroxy-2-phenylethyl]benzonitrile] it was 100%; in that of `O=C1c2cc(-c3nnc(C(F)F)o3)ccc2CN1[C@H](C1CCOCC1)[C@@H](O)c1cccc(C(F)(F)F)c1` (racemic) [Example 116, 6-[5-(difluoromethyl)-1,3,4-oxadiazol-2-yl]-2-{(1RS,2SR)-2-hydroxy-1-(oxan-4-yl)-2-[3-(trifluoromethyl)phenyl]ethyl}-2,3-dihydro-1H-isoindol-1-one], 101%.
